Patent US11464767B2, “Prodrugs of phenolic TRPV1 agonists in combination with local anesthetics and vasoconstrictors for improved local anesthesia” (Concentric Analgesics, Inc., priority 2016, dated 2022)
Blank lines part the entries; values can stand above or below the molecule they belong to.

Experiments:
in vivo = experiment: in vivo; parameters: species or system male Sprague-Dawley rats; conditions: rat, sc; for Tmax: Tmax of capsaicin
Text: This Example compares the pharmacokinetics of capsaicin from either capsaicin or from Compound 1 (with or without co-administered bupivacaine or bupivacaine with epinephrine) administered subcutaneously (SC) to rats. Additionally, this example compares the pharmacokinetics of cyclic urea metabolite (Compound 2) from Compound 1 (with or without co-administered bupivacaine or bupivacaine with epinephrine).
SC dosing: Four groups of six male Sprague-Dawley rats (vendor was Charles River Laboratories) each were to receive a single subcutaneous dose (4 mL/kg) of one of the following test articles:
Group 1) 1.00 mg/kg capsaicin in 25% PEG300/sterile water for injection (♦);
Group 2) 1.62 mg/kg Compound 1.HCl in sterile water for injection (□);
Group 3) 1.62 mg/kg Compound 1.HCl in 0.25% bupivacaine hydrochloride for injection (Δ);
Group 4) 1.62 mg/kg Compound 1.HCl in 0.25% bupivacaine hydrochloride plus epinephrine, (1:200,000 for injection) (*).
The dose of capsaicin and Compound 1 were selected to provide approximately equimolar amounts.
The injection volume was 4 mL/kg. (Note: The actual dose of capsaicin for Group 1 was 0.74 mg/kg, or 74% of the intended dose of 1 mg/kg. Dose data represents dose correction of Group 1 to equimolar dosages with Compound 1 from groups 2, 3, 4). The actual doses of Compound 1 HCl and bupivacaine for Groups 2, 3, and 4 were within 10% of the intended doses.
Blood samples (0.3 mL) were collected from the jugular vein into tubes containing K2EDTA as anticoagulant and 0.3 ml of 2% formic acid (resulting in a final concentration of 1% formic acid) as a quenching agent to stop the cyclization of Compound 1, which releases capsaicin and cyclic urea Compound 2. The samples were collected from each rat at 2, 10, and 30 minutes, and 1, 2, 4, 8, and 24 hours post-dose.
Each blood sample was mixed by inversion and placed on dry ice. They were not processed for plasma. The blood samples were kept frozen at −70° C. until further processing and analysis was performed. All blood samples were collected as scheduled.
The concentrations of the two main analytes in rat blood mixed 1:1 (v/v) with 2% formic acid were determined simultaneously using a qualified LC-MS/MS assay. The results for both analytes were reported in ng/mL. The calibration range was 1 to 1,000 ng/mL for Compound 1 and capsaicin in the mixed matrix. The calibration range was 5 to 1,000 ng/mL for Compound 2.
Table 1, FIG. 1, and FIG. 2 provide dose-corrected capsaicin exposure results for rats administered as described above.
Table 2, FIG. 3, and FIG. 4 provide Compound 2 exposure results for rats administered as described above.

[1] = test system: Brennan Model of Post-Incisional Pain in rat; experiment: Brennan Model of Post-Incisional Pain in rat, guarding scores (Example 4); format: in vivo, male Sprague Dawley rats
Procedure: This Example compares the pharmacodynamics of capsaicin from either capsaicin or from Compound 1 (with or without co-administered bupivacaine or ropivacaine) administered via intraplantar infiltration to rats.
Intraplantar infiltration dosing: Five groups of eight male Sprague Dawley rats (vendor was Charles River Laboratories) each were to receive a single subcutaneous dose of one of the following test articles: • Group 1. Compound 1, 162 μg in 0.25% bupivacaine solution (175 μL) • Group 2. Compound 1, 162 μg in 0.25% ropivacaine solution (175 μL) • Group 3. Compound 1, 162 μg in 0.125% ropivacaine solution (175 μL) • Group 4. 0.25% Ropivacaine solution (175 μL) • Group 5. Vehicle control (0.9% Saline; 175 μL)
The injection volume was 175 μL per rat. Vehicle and test articles will be administered by wound intraplantar infiltration (150 μL) immediately prior to incision, and injection into flexor muscle prior to closure (25 μL).
Surgery: Animals were anesthetized with 1.8 to 4% isofluorane (delivered via a nose cone). Study drug ([…]) was infiltrated (by intraplantar injection) immediately prior to incision. A 1 cm long incision of skin, fascia and muscle will be made in the plantar aspect (heel, midfoot or distal pad area) of the right hind paw starting 0.5 cm from the proximal edge of the heel and extending towards the toes. The flexor muscle was elevated and incised longitudinally via blunt dissection with the muscle origin and insertion remaining intact. After hemostasis with gentle pressure, study drug (25 μL) was injected into the flexor muscle prior to closure, and the incision was closed with one or two sutures (5-0 silk/nylon ophthalmic suture on a taper TF needle or equivalent). […]
Guarding Behaviors: The rats were placed in Plexiglas® squares on a stainless steel wire mesh floor thirty minutes before guarding scores are to be measured for acclimation. Guarding scores were measured over 1 hour time periods for the incised paw. The animals were observed closely during a 60 second period every 5 minutes for 1 hour and scored as follows. […]

[2] = Hydrophilicity/water solubility compared with capsaicin; format: physicochemical; conditions: than capsaicin
[3] = male, Sprague-Dawley, 1.62 mg/kg

Tmax (in vivo; male, Sprague-Dawley, 1 mg/kg, Mean ± SD): 30 min
Tmax (in vivo; male, Sprague-Dawley, 1 mg/kg, Median): 30 min
Tmax of capsaicin, Mean ± SD (in vivo; [3]): 50.0 ± 15.5 min
Tmax of capsaicin, Median (in vivo; [3]): 60 min
Tmax (in vivo; male, Sprague-Dawley, 1.62 mg/kg, Mean ± SD): 26.7 min
Tmax (in vivo; male, Sprague-Dawley, 1.62 mg/kg, Median): 30 min
AUC0-24 of capsaicin, Mean ± SD (in vivo; 1 mg/kg): 5,799 ± 1,759 (ng · min/mL)/(mg/kg)
AUC0-24 of capsaicin, Median (in vivo; 1 mg/kg): 5,193 (ng · min/mL)/(mg/kg)
Cmax of capsaicin, Mean ± SD (in vivo; 1 mg/kg): 110 ± 41 (ng/mL)/(mg/kg)
Cmax of capsaicin, Median (in vivo; 1 mg/kg): 105 (ng/mL)/(mg/kg)
SMILES: COc1cc(CNC(=O)CCCCC=CC(C)C)ccc1O [Capsaicin, 8-methyl-N-vanillyl-6-nonenamide]

SMILES: CCCN1CCCC[C@H]1C(=O)Nc1c(C)cccc1C [0.25% Ropivacaine, Ropivacaine]
Guarding Score (Mean ± SEM) Day 1 ([1]; Day 1, beginning four hours post surgery, 175 μL intraplantar infiltration, Compound 1 dose 162 μg where present, incised paw, total scores 0-24): 13.5 ± 1.17
mean guarding scores on Day 1 compared to the 0.9% saline group ([1]; Day 1, 175 μL intraplantar infiltration, Compound 1 dose 162 μg where present, p<0.05): no significant changes
Guarding Score (Mean ± SEM) Predose ([1]; Predose baseline, day prior to surgery and dosing, incised paw, total scores 0-24): 1.1 ± 0.30

AUC0-24 of Compound 2, Mean ± SD (in vivo; [3]): 24,180 ± 7,095 ng · min/mL
AUC0-24 of Compound 2, Median (in vivo; [3]): 25,930 ng · min/mL
Cmax of Compound 2, Mean ± SD (in vivo; [3]): 175 ± 48 ng/mL
Cmax of Compound 2, Median (in vivo; [3]): 196 ng/mL
Tmax of Compound 2, Mean ± SD (in vivo; [3]): 36.7 ± 19.7 min
AUC(0-t) (in vivo; male, Sprague-Dawley, 1.62 mg/kg, AUC0-24 of Compound 2, Mean ± SD): 445 ng·h/mL
AUC(0-t) (in vivo; male, Sprague-Dawley, 1.62 mg/kg, AUC0-24 of Compound 2, Median): 450 ng·h/mL
Cmax (in vivo; male, Sprague-Dawley, 1.62 mg/kg, Cmax of Compound 2, Mean ± SD): 226 ± 37 ng/mL
Cmax (in vivo; male, Sprague-Dawley, 1.62 mg/kg, Cmax of Compound 2, Median): 226 ng/mL
SMILES: CN1CC2CCCCN2C1=O (centres unmarked) [Compound 2, 2-methylhexahydroimidazo[1,5-a]pyridin-3(2H)-one]

SMILES: CNCC1CCCCN1C(=O)Oc1ccc(CNC(=O)CCCC/C=C/C(C)C)cc1OC.Cl (centres unmarked) [Compound 1, (E)-2-methoxy-4-((8-methylnon-6-enamido)methyl)phenyl 2-((methylamino)methyl)piperidine-1-carboxylate hydrochloride]
hydrophilicity/water solubility [2]: significantly higher
